Experiments:
[1] = target: Carbonic anhydrase 1 (Homo sapiens) (UniProt P00915); experiment: Maximal activatory effect against human carbonic anhydrase I (hCA I) at a concentration of 1 mM
[2] = target: Carbonic anhydrase 1 (Homo sapiens) (UniProt P00915); experiment: Maximal activatory effect against human carbonic anhydrase I (hCA I) at a concentration of 1 uM
[3] = target: Carbonic anhydrase 1 (Homo sapiens) (UniProt P00915); experiment: Maximal activatory effect against human carbonic anhydrase I (hCA I)
[4] = target: Carbonic anhydrase 2 (Homo sapiens) (UniProt P00918); experiment: Maximal activatory effect against human carbonic anhydrase II (hCA II)

Carbonic anhydrase 1 (Homo sapiens), sequence (P00915 2-261 limits assumed): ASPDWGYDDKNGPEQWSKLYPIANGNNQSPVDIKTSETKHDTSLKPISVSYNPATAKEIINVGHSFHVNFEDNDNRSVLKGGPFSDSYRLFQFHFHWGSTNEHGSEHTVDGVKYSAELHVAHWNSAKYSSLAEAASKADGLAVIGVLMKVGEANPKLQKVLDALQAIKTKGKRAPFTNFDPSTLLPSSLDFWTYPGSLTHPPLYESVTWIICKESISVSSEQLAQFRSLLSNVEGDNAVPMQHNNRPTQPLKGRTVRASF

Row | SMILES | Activity [1] [%] | Activity [2] [%] | Activity [3] [%] | Activity [4] [%]
1 | CNCCC(Oc1ccc(C(F)(F)F)cc1)c1ccccc1 (stereo not given) | 210 | 175 |  | 
2 | CN[C@H]1CC[C@@H](c2ccc(Cl)c(Cl)c2)c2ccccc21 |  | 145 | 165 | 
3 | N[C@@H](Cc1ccccc1)C(=O)O |  |  | 160 | 210
4 | NCCc1c[nH]cn1 | 185 | 165 |  | 
5 | CN(C)CCCC1(c2ccc(F)cc2)OCc2cc(C#N)ccc21 (stereo not given) |  | 134 | 148 | 
